Numbered stars: 1 amine (or outer) side, 2 acyl side, 3 side chain; on linkers, the order of the positions; unused ones are H or OH. Bridge positions count the residues as written; N and C are the ends. Square brackets hold non-standard residues; d marks the D form. Peptide text beside a SMILES is read from it. * marks the point of attachment. X1 = N=c1ccc2c(-c3ccccc3C(=O)*)c3ccc(N)c(S(=O)(=O)O)c3oc-2c1S(=O)(=O)O; NMeGABA = CN(CCCC(=O)[*:2])[*:1]
Experiments:
[1] = target: Kv1.3 channel; conditions: read-out: Kd of A-HgTx with Kv1.3 channel; cited from earlier work
[2] = target: T1, K-Kv1.1 channel (hKv1.1S369T with mKate2) (Homo sapiens, UniProt Q09470, S369T); assay: Whole-cell patch-clamp of currents through K-Kv1.1 in Neuro2a cells; type: cell-based
T1 construct: these fragments were combined and amplified using terminal primers to obtain the whole mutated gene; expressed in transfected cells; host or cells: mouse neuroblastoma Neuro2a cells, transient transfection with pmKate2-KCNA1m1
Method: Membrane ion currents through the K-Kv1.1 channel were recorded at room temperature by the patch-clamp technique using the standard whole-cell configuration as described earlier.
Briefly, Neuro2a cells attached to coverslips (10 mm in diameter) pre-coated with poly-D-lysine were immersed in a buffer (140 mM NaCl, 2.8 mM KCl, 2 mM MgCl2, 2 mM CaCl2, 10 mM glucose, 10 mM HEPES, pH 7.4) and perfused continuously. Micropipettes with a tip resistance of 6–8 MΩ were filled with a pipette solution containing 140 mM KCl, 6 mM CaCl2, 2 mM MgCl2, 2 mM MgATP, 0.4 mM NaGTP, 10 mM HEPES, 20 mM BAPTA/KOH (pH 7.3). The patches were routinely held at a holding potential of −40 mV. The potential was changed from −70 to +70 mV (20 mV step) using 200 ms pulses, which were applied incrementally with an interval of 20 s. Finally, the potential returned to the holding potential.
Cells were measured 24–48 h after transfection. The cells were selected by K-Kv1.1 fluorescence. The cells were analyzed if their input resistance was more than 350 MΩ. The currents were recorded using an EPC-10 amplifier (HEKA Elektronik, Stuttgart, Germany).
[…] The toxins were dissolved in a complete medium.
The measured concentration dependence of current inhibition through the K-Kv1.1 channel by A-HgTx was analyzed with the following equation:Irel(L) = 100/(1 + (IC50/L)^h) (1) where Irel is a decrease in current (%), L is the concentration of A-HgTx, IC50 is the concentration of A-HgTx that induces a 50% decrease in current, and h is the Hill coefficient.

[3] = system: Kv1.1 channel; conditions: concentrations up to 25 nM; cited from earlier work
Text: Ce1 is a member of the α-KTx2 subfamily of scorpion toxins and is a close homolog of the well-studied toxins HgTx1, MgTx, and noxiustoxin (NTx, Table 3). […] Thus, Ce1 surpasses the closest homolog NTx in affinity for Kv1.1, but inferiors MgTx and especially HgTx in this characteristic (Table 2).

[4] = target: T2, mKate2-tagged human Kv1.1 (S369T) channel (K-Kv1.1) (Homo sapiens, UniProt Q09470, S369T); assay: Competitive binding of peptide pore blocker and A-HgTx to K-Kv1.1 on the plasma membrane of Neuro2a cells (confocal microscopy); conditions: for effect of channel state (closed or open) on affinity of K-Kv1.1 for the peptide: A-HgTx (2 nM) displacement compared in complete medium, Na+ and K+ buffers
T2 construct: these fragments were combined and amplified using terminal primers to obtain the whole mutated gene; expressed in transfected cells; host or cells: mouse neuroblastoma Neuro2a cells, transient transfection with pmKate2-KCNA1m1
Method: To analyze the binding of A-HgTx, A-HgTx (0.25–4 nM) was added to cells in a complete medium for 60 min. To analyze competitive binding, A-HgTx (2 nM), together with the selected peptide (0.05–160 nM), was added to cells in a complete medium for 60 min.
To compare ligand binding with closed and open channels, ligands were added to cells (60 min, 37 °C) in a buffer (20 mM HEPES pH 7.4, 0.9 mM CaCl2, 0.5 mM MgCl2, 0.1% BSA) supplemented with 4 mM KCl and 150 mM NaCl (Na^+ buffer) or with 150 mM KCl (K^+ buffer).
The fluorescence of the K-Kv1.1 and K-Kv1.1wt channels was excited at 561 nm and detected in the 650–700 nm region. A-HgTx fluorescence was excited at 488 nm and detected in the 495–535 nm region. Sequential scanning was used to measure the cellular distributions of A-HgTx and mKate2 fluorescence in order to avoid interference of mKate2 fluorescence with cellular autofluorescence excited at 488 nm.
Quantitative analysis of the interaction of A-HgTx with K-Kv1.1 was carried out in accordance with the procedure developed previously for A-HgTx and the fluorescently labeled Kv1.3 channel. Briefly, the regions of interest with K-Kv1.1 on the plasma membrane were selected in the confocal images and used to create binary (0;1) masks that described the membranous distribution of K-Kv1.1. The confocal images of K-Kv1.1 and A-HgTx were multiplied by the corresponding mask, and the average fluorescence intensities of A-HgTx (Ili) and K-Kv1.1 (Ici) corrected for the background signal were calculated for each i-cell. Ratio Ri = Ili/Ici was calculated and averaged over 15–20 cells to obtain the Rav value and the standard deviation.
To analyze the competitive binding of the studied peptide pore blocker and A-HgTx to K-Kv1.1 on the cellular membrane, Rav data were plotted depending on the blocker concentration (C) at the constant A-HgTx concentration (L) and fitted with the following equation:Rav(C) = Rav0/(1 + C/DC50)(3) where DC50 is the blocker concentration displacing 50% of A-HgTx from the complex with K-Kv1.1, and Rav0 is Rav at C = 0.
The apparent dissociation constant (Kap) of the complex between the studied blocker and the K-Kv1.1 channel was calculated using the Cheng–Prusoff equation:Kap = DC50/(1 + L/Kd).(4)
Two independent experiments were performed, and the Kav data were averaged and presented as mean ± SEM. Fifteen to twenty-five treated cell images were the average value for each point on the curves of A-HgTx binding to the K-Kv1.1 channel.

[5] = system: non-transfected Neuro2a cells; conditions: cited from earlier work
[6] = system: Kv1.3 channel; conditions: cited from earlier work
Method: Exploring the potential of this analytical system, we have measured the Kap of the complex between the recombinant peptide Ce1 and the Kv1.1 channel (Figure 8c, Table 2) and classified Ce1 as a moderately active ligand of this channel. Toxin Ce1 was found in the venom of the scorpion Centruroides elegans and characterized as a high-affinity pore blocker of the Kv1.3 channel (IC50 = 0.7 nM). Its activity for the Kv1.1 channel was not previously reported.

T2 sequence (Q09470 whole entry S369T, the tested form may be a part): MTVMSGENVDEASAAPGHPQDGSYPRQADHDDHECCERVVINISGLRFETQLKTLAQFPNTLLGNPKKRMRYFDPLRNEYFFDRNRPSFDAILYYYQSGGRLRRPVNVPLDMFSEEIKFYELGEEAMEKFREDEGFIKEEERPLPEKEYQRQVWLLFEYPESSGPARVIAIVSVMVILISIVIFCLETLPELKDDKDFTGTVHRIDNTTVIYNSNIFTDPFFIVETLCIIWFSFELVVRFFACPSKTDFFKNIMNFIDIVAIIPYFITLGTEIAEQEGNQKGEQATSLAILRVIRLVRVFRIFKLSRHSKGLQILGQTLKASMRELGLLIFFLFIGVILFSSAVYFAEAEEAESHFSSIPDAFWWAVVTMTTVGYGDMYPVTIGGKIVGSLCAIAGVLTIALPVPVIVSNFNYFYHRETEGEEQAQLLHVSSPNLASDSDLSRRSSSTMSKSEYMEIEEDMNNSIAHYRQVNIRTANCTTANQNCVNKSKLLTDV
T1 sequence (Q09470 whole entry S369T, the tested form may be a part): as above

Compound: CC[C@H](C)[C@@H]1NC(=O)CNC(=O)[C@H](Cc2ccccc2)NC(=O)[C@H](CCC(N)=O)NC(=O)[C@H](C)NC(=O)[C@H](CCCCN)NC(=O)[C@@H]2CSSC[C@@H](C(=O)N[C@@H](Cc3ccc(O)cc3)C(=O)N3CCC[C@H]3C(=O)N[C@@H](Cc3c[nH]cn3)C(=O)O)NC(=O)[C@H](CCCCN)NC(=O)[C@@H]3CSSC[C@H](NC(=O)[C@H](CCC(N)=O)NC(=O)[C@H](CCCCN)NC(=O)[C@@H]4CCCN4C(=O)[C@H](CO)NC(=O)[C@H]([C@@H](C)O)NC(=O)[C@@H](NC(=O)[C@H](CCCCN)NC(=O)[C@@H](NC(=O)[C@H](CC(=O)O)NC(=O)[C@@H](NC(=O)[C@@H](NC(=O)[C@@H](NC(=O)CCCN(C)C(=O)c4ccccc4-c4c5ccc(=N)c(S(=O)(=O)O)c-5oc5c(S(=O)(=O)O)c(N)ccc45)[C@@H](C)O)C(C)C)[C@@H](C)CC)C(C)C)CSSC[C@H](NC(=O)[C@H](CCCCN)NC(=O)[C@H](C)NC(=O)CNC(=O)[C@H](C)NC(=O)[C@H](CCCNC(=N)N)NC1=O)C(=O)N[C@@H](CCSC)C(=O)N[C@@H](CC(N)=O)C(=O)NCC(=O)N[C@@H](CCCCN)C(=O)N3)C(=O)N[C@@H](CC(C)C)C(=O)N1CCC[C@H]1C(=O)N1CCC[C@H]1C(=O)N2 [A-HgTx] (X1-[NMeGABA]TVIDVKCTSPKQCLPPCKAQFGIRAGAKCMNGKCKCYPH-OH; disulfide 8-30, 14-35, 18-37; C-terminus assumed)
- Kd [1]: 0.3 ± 0.13 nM
- decrease in the amplitude of the current through K-Kv1.1 ([2]; 5 nM A-HgTx, applied voltage from −30 to 70 mV): ~50%
- IC50 ([2]; +50 mV voltage, mean ± SEM (n = 6), SEM, read-out: IC50 (concentration of A-HgTx inhibiting current by 50%)): 4.8 ± 0.2 nM
- maximum current inhibition ([2]; +50 mV, A-HgTx above 15 nM): ca. 75%

Compound: noxiustoxin [NTx]
- block of the Kv1.1 channel [3]: does not block

Compound: charybdotoxin [ChTx]
- effect of channel state (closed or open) on affinity of K-Kv1.1 for the peptide [4]: does not affect the affinity
- effect on binding of A-HgTx (2 nM) to K-Kv1.1 ([4]; ChTx 100 nM): does not affect the binding of A-HgTx to K-Kv1.1
- sensitivity of background currents to the blocker [5]: insensitive

Compound: CC[C@H](C)[C@H](NC(=O)[C@@H](NC(=O)[C@@H](N)[C@@H](C)O)C(C)C)C(=O)N[C@@H](CC(N)=O)C(=O)N[C@H](C(=O)N[C@@H](CCCCN)C(=O)N[C@H]1CSSC[C@@H]2NC(=O)[C@H](CCCCN)NC(=O)[C@H](C)NC(=O)CNC(=O)[C@H](C)NC(=O)[C@H](Cc3c[nH]cn3)NC(=O)[C@@H]3CCCN3C(=O)CNC(=O)[C@H](Cc3ccc(O)cc3)NC(=O)[C@H](CC(C)C)NC(=O)[C@H](CC(=O)O)NC(=O)[C@H](CCCCN)NC(=O)[C@@H]3CSSC[C@@H](C(=O)N[C@@H](Cc4ccc(O)cc4)C(=O)N[C@@H](CC(N)=O)C(=O)N[C@@H](CC(N)=O)C(=O)O)NC(=O)[C@H](CCCCN)NC(=O)[C@H](CSSC[C@H](NC(=O)[C@H](CCC(N)=O)NC(=O)[C@H](CCCCN)NC(=O)[C@@H]4CCCN4C(=O)[C@H](CO)NC(=O)[C@H]([C@@H](C)O)NC1=O)C(=O)N[C@@H](CC(C)C)C(=O)N[C@@H](CCCCN)C(=O)N1CCC[C@H]1C(=O)N3)NC(=O)[C@H](CCCCN)NC(=O)CNC(=O)[C@H](CC(N)=O)NC(=O)[C@H](CCSC)NC2=O)C(C)C [Ce1] (H-TVINVKCTSPKQCLKPCKDLYGPHAGAKCMNGKCKCYNN-OH; disulfide 7-29, 13-34, 17-36 (inferred); N-terminus and C-terminus assumed)
- IC50 [6]: 0.7 nM
- effect of channel state (closed or open) on affinity of K-Kv1.1 for the peptide [4]: does not affect the affinity
